From patent US20210330596A1, “PHARMACEUTICAL COMPOSITION FOR USE IN A COMBINATION WITH CA[…] ENHANCE BENEFITS OF CA[…] SUPPORT HUMAN ENDOCANNABINOID SYSTEM” (priority 2020, published 2021)
“And” between values parts separate entries of the source, which are not always exact repeats. Equal entries are not always repeated.

Tested on: mice's endocannabinoid system
Assay: maze and food trial: time the mice need to solve the maze after feed
Assay type: in vivo
Conditions: for time to solve the maze, Time 0, individual mouse / time to solve the maze, Time 0, Average: 10 minutes after feed; for time to solve the maze, Time 0, individual mouse / time to solve the maze, Time 1, individual mouse: mouse # 1-10 in table order; for time to solve the maze, Time 0, Average / time to solve the maze, Time 1, Average: ten mice; for time to solve the maze, Time 1, individual mouse / time to solve the maze, Time 1, Average: 120 minutes after feed
Description: In an embodiment, the pharmaceutical composition of the present invention relates to an essential oil rich composition that supports the endocannabinoid system. Following tables 1-5 describe trials conducted with ten mice (Wistar) utilizing a maze and food to determine how long on average the mice solves the maze at 10 and 120 minutes after starting the experiment.
Table 1 is the base when the mice learned the experiment. It took 7 days of training (4 repetitions per day) to get the base time for each mice.
The Average Time results were statistically slower to the Control (Table 3) results with a standard deviation of less than 3%. The slowness with which the mice solved the maze leads us to believe either the embodiment has some entourage effect (as described by Ben-Shabat et. Al. in the European Journal of Pharmacology, 1998) or has supported the endocannabinoid system in mice because the mice took at least as long to solve the maze as before they developed tolerance to THC. The Entourage Effect was also described by Russo et. al. in his paper “Taming THC: potential cannabis synergy and phytocannabinoid-terpenoid entourage effects”, published in the British Journal of Pharmacology, 2011 August; 163(7): 1344-1364.
In this Table we see the results of THC 24 hours after the embodiment was administered. Mice on average take 1-5 hours to digest food. It is estimated that mice will have completely metabolized the embodiment after 24 hours. After THC was administered but now without the embodiment, mice are experiencing the same heightened effects of THC as in FIG. 4, even after the embodiment was not present in their body after a 24 hour period.

[1] = Day 1 CONTROL, 0.3 mgTHC/kg, before tolerance
[2] = Day 14 BASELINE 2 (acquired tolerance), 0.3 mgTHC/kg/day
[3] = TRIAL 2, 0.3 mgTHC + 0.0 mg embodiment/kg, THC 24 hours after the embodiment was administered

In the case of CCCCCc1cc(O)c2c(c1)OC(C)(C)[C@@H]1CCC(C)=C[C@@H]21 [THC, Tetrahydrocannabinol], the “time to solve the maze, Time 0, individual mouse” value (from here on “time … Time 0, individual mouse”) [1] is reported as 16 ± 3 minutes and 17 ± 3 minutes (2×) and 23 ± 3 minutes and 20 ± 3 minutes and 25 ± 3 minutes and 30 ± 3 minutes and 26 ± 3 minutes and 19 ± 3 minutes and 24 ± 3 minutes, the “time to solve the maze, Time 0, Average” value [1] is reported as 22 ± 3 min and the “time to solve the maze, Time 1, individual mouse” value (from here on “time … Time 1, individual mouse”) [1] is reported as 14 ± 3 minutes (2×) and 10 ± 3 minutes (2×) and 19 ± 3 minutes (2×) and 22 ± 3 minutes (2×) and 21 ± 3 minutes and 16 ± 3 minutes. For the same molecule, the “time to solve the maze, Time 1, Average” value [1] was 17 ± 3 min, the “time … Time 0, individual mouse” value [2] was 16 ± 3 minutes (2×) and 19 ± 3 minutes (2×) and 18 ± 3 minutes (2×) and 14 ± 3 minutes and 13 ± 3 minutes and 12 ± 3 minutes and 11 ± 3 minutes and the “time to solve the maze, Time 0, Average” value [2] was 14 ± 3 min. The “time … Time 1, individual mouse” value [2] was 14 ± 3 minutes and 15 ± 3 minutes (2×) and 12 ± 3 minutes and 10 ± 3 minutes (4×) and 11 ± 3 minutes (2×), the “time to solve the maze, Time 1, Average” value [2] was 12 ± 3 min and the “time … Time 0, individual mouse” value [3] was 27 ± 3 minutes (2×) and 20 ± 3 minutes and 22 ± 3 minutes (2×) and 17 ± 3 minutes and 16 ± 3 minutes and 21 ± 3 minutes and 18 ± 3 minutes and 29 ± 3 minutes. For the same molecule, the “time to solve the maze, Time 0, Average” value [3] was 22 ± 3 min, the “time … Time 1, individual mouse” value [3] was 22 ± 3 minutes and 19 ± 3 minutes (2×) and 16 ± 3 minutes and 23 ± 3 minutes and 15 ± 3 minutes and 12 ± 3 minutes and 9 ± 3 minutes and 17 ± 3 minutes and 20 ± 3 minutes and the “time to solve the maze, Time 1, Average” value [3] was 17 ± 3 min. For the same molecule, the “maze solved faster on average than the Control Time, T0” value (after 15 days of daily THC dose of 0.3 mgTHC/kg, Time 0 (10 minutes after feed), tolerance to THC) was 40% and the “maze solved faster on average than the Control Time, T1” value (after 15 days of daily THC dose of 0.3 mgTHC/kg, Time 1 (120 minutes after feed), tolerance to THC) was “up to 60%”.
